The first assay has as its target T1, autotaxin (ATX) (Homo sapiens, UniProt Q13822).
T1 construct: gene ENPP2
In words: FS-3 fluorogenic substrate hydrolysis assay with […] purified recombinant human ATX. In kind it is biochemical.
Usually IC50 stands for the point on the concentration scale where inhibition reaches its midpoint. On to `CCCCCCCCCCCCCCCc1ccc(CP(=O)(O)O)cc1` [BMP-22, reference compound], for which the IC50 worked out at 0.2 µM.

For the compound MolPort-137, the IC50 was found to be 1.6 ± 0.2 µM.

In another assay the target is T1, autotaxin (ATX). In words: biochemical. On the set-up: FS-3 fluorogenic substrate hydrolysis by purified recombinant human ATX, fluorescence read-out. On the procedure: The purification of recombinant human ATX was carried out as reported earlier. The potential inhibitory effect of the hits identified through molecular modeling was assessed using the FS-3 assay, which measures fluorescence when the non-natural lipid-like FRET-established substance FS-3 (Echelon Biosciences, Salt Lake City, UT, USA) is hydrolyzed by ATX. A 60 μL volume of reaction mixture containing ATX assay buffer (pH 8.0, containing 10 μM BSA, 50 mM TRIS, […], 5 mM KCl, 1 mM CaCl2, and 1 mM MgCl2) was added to each well of a black-wall 96-well plate. Recombinant ATX was then added to achieve a final concentration of 4 nM. The compounds were dissolved in DMSO and transferred to a 96-well plate in technical triplicate. Single-dose testing was performed with a final well concentration of 10 μM, while dose–response assays involved eight different concentrations of the test compound. FS-3 was then added to achieve a concluding well strength of 1 μM, and fluorescence was quantified on a CLARIOstar Plus plate reader (BMG Labtech, Ortenberg, Baden-Württemberg, Germany) for two hours, with scans every two minutes at excitation/emission wavelengths of 485/528 nm. Percent activity was calculated relative to DMSO-treated control wells. […] Inhibition tests were conducted to target ATX-facilitated hydrolysis of FS3 (LPC homolog) using 15 compounds at 10 μM. Compounds inhibiting more than 50% of FS-3 hydrolysis were classified as hits. […] BMP-22, a known ATX inhibitor, served as a control with an IC50 of 0.2 ± 0.0 μM, consistent with reported values.
What is called inhibition is the relative decrease from the control value, in per cent. As to `CCc1cccc(NC(=O)Cn2nc3c(Oc4ccccc4C)nc4ccccc4n3c2=O)c1` [MolPort-674], the inhibition at 10 µM was determined as 7.1%.

On to `COc1ccccc1-c1nc(Cn2nnc(-c3nc(-c4ccc(C)cc4)no3)c2C)c(C)o1` [MolPort-185], for which the inhibition at 10 µM was 33.7%.

Take `Cc1cc(-n2c(SCC(=O)Nc3ccc(F)c(F)c3)nc3n[nH]c(C)c3c2=N)ccc1Cl` [MolPort-323]: the inhibition at 10 µM was 5%.

As to `Cc1cc(F)ccc1NC(=O)c1cnn2c(=O)c3c(n(C)c12)CCN(Cc1ccccc1)C3` [MolPort-137], the inhibition at 10 µM turned out to be 75.9%.

For `COc1cc(C=C2N=C(c3ccc(F)cc3)OC2=O)cc(I)c1OCc1cccc(C)c1` [MolPort-839], the inhibition at 10 µM stood at 10.8%.

In the case of `Cc1cc(NC(=O)Cn2nc3c(Oc4ccccc4C)nc4ccccc4n3c2=O)ccc1Br` [MolPort-311], the inhibition at 10 µM came out at 5.23%.

Consider `Cc1ccc(NC(=O)Cn2nc3c(Oc4cccc(C)c4C)nc4ccccc4n3c2=O)cc1C` [MolPort-240], for which the inhibition at 10 µM came out at 2.06%.

In the case of `Cc1cccc(-n2c(SCC(=O)Nc3ccc(C)c(C)c3)nc3[nH]nc(C)c3c2=N)c1` [MolPort-144], the inhibition at 10 µM was -13.5%.

For the compound `Cc1cc(C)cc(-n2c(CN3CCN(C(=O)Nc4ccccc4F)CC3)nc3cccnc32)c1` [MolPort-904], the inhibition at 10 µM is 29.7%.

As to `Cc1cccc(CNC(=O)c2c(O)c3cccnc3n(-c3cccc(F)c3)c2=O)c1` [MolPort-914], the inhibition at 10 µM came out at 7.61%.

Turning to `Cc1ccccc1NC(=O)c1nnn(Cc2nc(-c3cccc(Cl)c3)oc2C)c1C` [MolPort-495], the inhibition at 10 µM is 27.2%.

`Cc1cc(C)cc(NC(=O)Cn2c(=O)nc(N3CCCC(C)C3)c3ccccc32)c1` (centres unmarked) [MolPort-616]: the inhibition at 10 µM worked out at 26.4%.

For `Cc1ccc(-c2noc(-c3nnn(Cc4nc(-c5ccccc5)oc4C)c3C)n2)cc1C` [MolPort-122], the inhibition at 10 µM came to 15.5%.

Regarding `COc1ccc(NC(=O)CSc2nc(=O)c3c(C)cc(C)nc3n2-c2cccc(C)c2C)cc1` [MolPort-072], the inhibition at 10 µM was determined as 42%.

Consider `Cc1cccc(NC(=O)Cn2nc3c(Oc4ccccc4C)nc4ccccc4n3c2=O)c1` [MolPort-161], for which the inhibition at 10 µM was 5.16%.

Source of the values: PMC11765394, “Structure-Based Discovery of MolPort-137: A Novel Autotaxin Inhibitor That Improves Paclitaxel Efficacy” (International Journal of Molecular Sciences, 2025).
